Results as given in patent US20100298141A1, “SUBSTITUTED PYRIDINE N-OXIDE HERBICIDES” (E. I. DU PONT DE NEMOURS AND COMPANY, priority 2007, published 2010).

Assays:
barnyardgrass = assay: Test A pre-/postemergence greenhouse test; assay type: in vivo, Echinochloa crus-galli; conditions: for Plant response rating, Barnyardgrass: 0 to 100 scale where 0 is no effect and 100 is complete control; for Barnyardgrass plant response rating: 0 to 100 scale
Procedure, shortened: (§1)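 Sowing in loam/sand; same-day pre (directed soil spray) and post (foliar, 1–2 leaf, 2–10 cm) treatment with surfactant-containing non-phytotoxic solvent formulation; ~10 days in greenhouse; eye-scored injury against untreated plants.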

velvetleaf = assay: Test A pre-/postemergence greenhouse test; assay type: in vivo, Abutilon theophrasti; conditions: for Plant response rating, Velvetleaf: 0 to 100 scale where 0 is no effect and 100 is complete control; for Velvetleaf plant response rating: 0 to 100 scale
Procedure, shortened: as §1

green foxtail = assay: Test C pre-/postemergence test; assay type: in vivo, Setaria viridis
Procedure, shortened: (§2)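 Test chemicals were formulated with surfactant in a non-phytotoxic solvent and sprayed both on freshly planted seeds (preemergence) and on 1- to 4-leaf plants of 2–18 cm (postemergence). Flooded-paddy pots received compound directly into 3 cm of standing water, maintained for the test.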

Italian ryegrass = assay: Test C pre-/postemergence test; assay type: in vivo, Lolium multiflorum
Procedure, shortened: as §2

goosegrass = assay: Test F preemergence test; assay type: in vivo, Eleusine indica; conditions: scale 0 to 100
Procedure, shortened: (§3)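 Greenhouse screen: test chemical in surfactant-containing non-phytotoxic solvent applied preemergence to sown seeds or postemergence to sugarcane plants; after 14 to 21 days each species scored visually versus controls.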

johnsongrass = assay: Test F preemergence test; assay type: in vivo, Sorghum halepense; conditions: scale 0 to 100
Procedure, shortened: as §3

kochia = assay: Test F preemergence test; assay type: in vivo, Kochia scoparia; conditions: scale 0 to 100
Procedure, shortened: as §3

purple nutsedge = assay: Test F preemergence test; assay type: in vivo, Cyperus rotundus; conditions: scale 0 to 100
Procedure, shortened: as §3

dallisgrass = assay: Test F preemergence test; assay type: in vivo, Paspalum dilatatum; conditions: scale 0 to 100
Procedure, shortened: as §3

broadleaf signalgrass = assay: Test F preemergence test; assay type: in vivo, Brachiaria platyphylla; conditions: scale 0 to 100
Procedure, shortened: as §3

common groundsel = assay: Test F preemergence test; assay type: in vivo, Senecio vulgaris; conditions: scale 0 to 100
Procedure, shortened: as §3

Virginia dayflower = assay: Test F preemergence test; assay type: in vivo, Commelina virginica; conditions: scale 0 to 100
Procedure, shortened: as §3

itchgrass = assay: Test F preemergence test; assay type: in vivo, Rottboellia cochinchinensis; conditions: scale 0 to 100
Procedure, shortened: as §3

[1] = Postemergence, 500 g ai/ha, 0 is no effect, 100 is complete control
[2] = Preemergence, 125 g ai/ha, 0 no effect, 100 complete control
[3] = 125 g ai/ha, preemergence, scale 0 (no effect) to 100 (complete control)
[4] = Postemergence, 125 g ai/ha, scale 0 to 100, 0 no effect, 100 complete control
[5] = Postemergence, 250 g ai/ha, scale 0 to 100, 0 no effect, 100 complete control
[6] = Preemergence, 31 g ai/ha, scale 0 to 100 (0 no effect, 100 complete control)
[7] = preemergence, 250 g ai/ha, scale 0 (no effect) to 100 (complete control)
[8] = Postemergence, 125 g ai/ha, 0 is no effect, 100 is complete control
[9] = 31 g ai/ha, Preemergence, scale 0 to 100
[10] = 62 g ai/ha, preemergence, scale 0 (no effect) to 100 (complete control)
[11] = preemergence, 125 g ai/ha, scale 0 (no effect) to 100 (complete control)

## CC(Oc1c(CS(=O)(=O)c2cccc[n+]2[O-])c(C(F)(F)F)nn1C)C(F)(F)F (stereo not drawn) [Compound 82]
barnyardgrass; Postemergence, 125 g ai/ha
  Plant response rating, Barnyardgrass: 70
barnyardgrass; [1]
  Barnyardgrass plant response rating: 80
barnyardgrass; [2]
  Barnyardgrass plant response rating: 90
barnyardgrass; Preemergence, 500 g ai/ha
  Plant response rating, Barnyardgrass: 100
velvetleaf; Postemergence, 125 g ai/ha
  Plant response rating, Velvetleaf: 10
velvetleaf; [1]
  Velvetleaf plant response rating: 80
velvetleaf; [2]
  Velvetleaf plant response rating: 60
velvetleaf; Preemergence, 500 g ai/ha
  Plant response rating, Velvetleaf: 100
Green foxtail; 62 g ai/ha, Preemergence, scale 0 to 100
  Foxtail, Green plant response rating: 95
Green foxtail; [3]
  Foxtail, Green plant response rating: 98
Green foxtail; Postemergence, 31 g ai/ha
  Plant response rating (0 to 100), Foxtail, Green: 0
Green foxtail; Postemergence, 62 g ai/ha
  Plant response rating (0 to 100), Foxtail, Green: 40
Green foxtail; [4]
  Plant response rating, Foxtail, Green: 60
Green foxtail; [5]
  Plant response rating, Foxtail, Green: 80
Green foxtail; [6]
  Plant response rating, Foxtail, Green: 95
Green foxtail; [7]
  Foxtail, Green plant response rating: 100
Italian ryegrass; [3]
  Ryegrass, Italian plant response rating: 80
Italian ryegrass; Postemergence, 31 g ai/ha
  Plant response rating (0 to 100), Ryegrass, Italian: 0
Italian ryegrass; Postemergence, 62 g ai/ha
  Plant response rating (0 to 100), Ryegrass, Italian: 0
Italian ryegrass; [4]
  Plant response rating, Ryegrass, Italian: 85
Italian ryegrass; [5]
  Plant response rating, Ryegrass, Italian: 90
Italian ryegrass; [6]
  Plant response rating, Ryegrass, Italian: 75
Italian ryegrass; [7]
  Ryegrass, Italian plant response rating: 100
goosegrass; 16 g ai/ha, preemergence
  Plant response rating, Goosegrass: 15
goosegrass; 125 g ai/ha, preemergence
  Goosegrass plant response rating: 98
goosegrass; Preemergence, 62 g ai/ha
  Plant response rating, Goosegrass: 98
goosegrass; Preemergence, 31 g ai/ha
  Plant response rating, Goosegrass: 75
johnsongrass; 125 g ai/ha, preemergence
  Johnsongrass plant response rating: 100
johnsongrass; Preemergence, 62 g ai/ha
  Plant response rating, Johnsongrass: 100
johnsongrass; Preemergence, 31 g ai/ha
  Plant response rating, Johnsongrass: 35
kochia; 16 g ai/ha, preemergence
  Plant response rating, Kochia: 100
kochia; 125 g ai/ha, preemergence
  Kochia plant response rating: 100
kochia; Preemergence, 62 g ai/ha
  Plant response rating, Kochia: 100
kochia; Preemergence, 31 g ai/ha
  Plant response rating, Kochia: 100
Purple nutsedge; 16 g ai/ha, preemergence
  Plant response rating, Purple Nutsedge: 0
Purple nutsedge; 125 g ai/ha, preemergence
  Purple Nutsedge plant response rating: 50
Purple nutsedge; Preemergence, 62 g ai/ha
  Plant response rating, Purple Nutsedge: 30
dallisgrass; 16 g ai/ha, preemergence
  Plant response rating, Dallisgrass: 20
dallisgrass; 125 g ai/ha, preemergence
  Dallisgrass plant response rating: 90
dallisgrass; Preemergence, 62 g ai/ha
  Plant response rating, Dallisgrass: 40
dallisgrass; Preemergence, 31 g ai/ha
  Plant response rating, Dallisgrass: 20
Broadleaf signalgrass; 16 g ai/ha, preemergence
  Plant response rating, Signalgrass: 50
Broadleaf signalgrass; 125 g ai/ha, preemergence
  Signalgrass plant response rating: 100
Broadleaf signalgrass; Preemergence, 62 g ai/ha
  Plant response rating, Signalgrass: 100
Broadleaf signalgrass; Preemergence, 31 g ai/ha
  Plant response rating, Signalgrass: 50
Common groundsel; 16 g ai/ha, preemergence
  Plant response rating, Groundsel: 0
Common groundsel; 125 g ai/ha, preemergence
  Groundsel plant response rating: 90
Common groundsel; Preemergence, 62 g ai/ha
  Plant response rating, Groundsel: 30
Common groundsel; Preemergence, 31 g ai/ha
  Plant response rating, Groundsel: 0
Virginia dayflower; 125 g ai/ha, preemergence
  Dayflower plant response rating: 100
Virginia dayflower; Preemergence, 62 g ai/ha
  Plant response rating, Dayflower: 90
itchgrass; 125 g ai/ha, preemergence
  Itchgrass plant response rating: 70
itchgrass; Preemergence, 62 g ai/ha
  Plant response rating, Itchgrass: 60
itchgrass; Preemergence, 31 g ai/ha
  Plant response rating, Itchgrass: 0

## Cc1cc[n+]([O-])c([S+]([O-])Cc2c(C(F)(F)F)nn(C)c2OC(F)F)c1 (stereo not drawn) [Compound 1]
barnyardgrass; [8]
  Barnyardgrass plant response rating: 80
barnyardgrass; [1]
  Barnyardgrass plant response rating: 80
barnyardgrass; [2]
  Barnyardgrass plant response rating: 90
barnyardgrass; Preemergence, 500 g ai/ha
  Plant response rating, Barnyardgrass: 100
velvetleaf; [8]
  Velvetleaf plant response rating: 50
velvetleaf; [1]
  Velvetleaf plant response rating: 70
velvetleaf; [2]
  Velvetleaf plant response rating: 30
velvetleaf; Preemergence, 500 g ai/ha
  Plant response rating, Velvetleaf: 100
Green foxtail; [9]
  Foxtail, Green plant response rating: 100
Green foxtail; [10]
  Foxtail, Green plant response rating: 100
Green foxtail; Postemergence, 31 g ai/ha
  Plant response rating (0 to 100), Foxtail, Green: 0
Green foxtail; Postemergence, 62 g ai/ha, scale 0 to 100, 0 no effect, 100 complete control
  Plant response rating, Foxtail, Green: 0
Green foxtail; [4]
  Plant response rating, Foxtail, Green: 30
Green foxtail; [5]
  Plant response rating, Foxtail, Green: 60
Green foxtail; Preemergence, 250 g ai/ha
  Plant response rating (0 to 100), Foxtail, Green: 100
Green foxtail; [11]
  Foxtail, Green plant response rating: 100
Italian ryegrass; [9]
  Ryegrass, Italian plant response rating: 60
Italian ryegrass; [10]
  Ryegrass, Italian plant response rating: 100
Italian ryegrass; Postemergence, 31 g ai/ha
  Plant response rating (0 to 100), Ryegrass, Italian: 0
Italian ryegrass; Postemergence, 62 g ai/ha
  Plant response rating (0 to 100), Ryegrass, Italian: 0
Italian ryegrass; [4]
  Plant response rating, Ryegrass, Italian: 0
Italian ryegrass; [5]
  Plant response rating, Ryegrass, Italian: 30
Italian ryegrass; Preemergence, 250 g ai/ha
  Plant response rating (0 to 100), Ryegrass, Italian: 100
Italian ryegrass; [11]
  Ryegrass, Italian plant response rating: 100
goosegrass; 8 g ai/ha, preemergence
  Plant response rating, Goosegrass: 25
goosegrass; 62 g ai/ha, Preemergence
  Goosegrass plant response rating: 95
goosegrass; Preemergence, 16 g ai/ha
  Plant response rating, Goosegrass: 70
goosegrass; Preemergence, 31 g ai/ha
  Plant response rating, Goosegrass: 80
johnsongrass; 8 g ai/ha, preemergence
  Plant response rating, Johnsongrass: 35
johnsongrass; 62 g ai/ha, Preemergence
  Johnsongrass plant response rating: 90
johnsongrass; Preemergence, 16 g ai/ha
  Plant response rating, Johnsongrass: 70
johnsongrass; Preemergence, 31 g ai/ha
  Plant response rating, Johnsongrass: 90
kochia; 8 g ai/ha, preemergence
  Plant response rating, Kochia: 0
kochia; 62 g ai/ha, Preemergence
  Kochia plant response rating: 90
kochia; Preemergence, 16 g ai/ha
  Plant response rating, Kochia: 0
kochia; Preemergence, 31 g ai/ha
  Plant response rating, Kochia: 35
Purple nutsedge; 8 g ai/ha, preemergence
  Plant response rating, Purple Nutsedge: 0
Purple nutsedge; 62 g ai/ha, Preemergence
  Purple Nutsedge plant response rating: 60
Purple nutsedge; Preemergence, 16 g ai/ha
  Plant response rating, Purple Nutsedge: 0
Purple nutsedge; Preemergence, 31 g ai/ha
  Plant response rating, Purple Nutsedge: 60
dallisgrass; 8 g ai/ha, preemergence
  Plant response rating, Dallisgrass: 0
dallisgrass; 62 g ai/ha, Preemergence
  Dallisgrass plant response rating: 50
dallisgrass; Preemergence, 16 g ai/ha
  Plant response rating, Dallisgrass: 0
dallisgrass; Preemergence, 31 g ai/ha
  Plant response rating, Dallisgrass: 20
Broadleaf signalgrass; 8 g ai/ha, preemergence
  Plant response rating, Signalgrass: 0
Broadleaf signalgrass; 16 g ai/ha, preemergence
  Plant response rating, Signalgrass: 0
Broadleaf signalgrass; 62 g ai/ha, Preemergence
  Signalgrass plant response rating: 50
Broadleaf signalgrass; Preemergence, 31 g ai/ha
  Plant response rating, Signalgrass: 25
Common groundsel; 8 g ai/ha, preemergence
  Plant response rating, Groundsel: 0
Common groundsel; 62 g ai/ha, Preemergence
  Groundsel plant response rating: 35
Common groundsel; Preemergence, 16 g ai/ha
  Plant response rating, Groundsel: 20
Common groundsel; Preemergence, 31 g ai/ha
  Plant response rating, Groundsel: 35
Virginia dayflower; 8 g ai/ha, preemergence
  Plant response rating, Dayflower: 0
Virginia dayflower; 62 g ai/ha, Preemergence
  Dayflower plant response rating: 100
Virginia dayflower; Preemergence, 16 g ai/ha
  Plant response rating, Dayflower: 0
Virginia dayflower; Preemergence, 31 g ai/ha
  Plant response rating, Dayflower: 80
itchgrass; 8 g ai/ha, preemergence
  Plant response rating, Itchgrass: 0
itchgrass; 62 g ai/ha, Preemergence
  Itchgrass plant response rating: 90
itchgrass; Preemergence, 16 g ai/ha
  Plant response rating, Itchgrass: 60
itchgrass; Preemergence, 31 g ai/ha
  Plant response rating, Itchgrass: 70
